Measured values reported in PMC10486429, “Investigations Using Albumin Binders to Modify the Tissue Distribution Profile of Radiopharmaceuticals Exemplified with Folate Radioconjugates” (Cancers, 2023).

How the values were obtained:
[1] = Blood clearance of 177Lu-DOTA-ALBs in FVB mice; conditions: for Time to Reach 50% IA (T50%IA): blood activity, value at 3 min set as 100%
Method: Immunocompetent female mice (FVB) at the age of 5 to 6 weeks were purchased from Charles River Laboratories (Sulzfeld, Germany) and acclimatized upon arrival for at least 7 days. FVB mice were intravenously injected with ^177Lu-DOTA-ALBs (25 MBq, 1 nmol/mouse, 100 µL PBS containing 0.05% bovine serum albumin (BSA) and 25 μg L-ascorbic acid, n = 3−6 mice per radioligand) followed by the first blood sampling of 3 × 1 μL from a different tail vein 3 min after injection (set as t0). Additional blood samples were taken at defined time points after injection. All collected blood samples from individual mice were measured at the same time using a γ-counter (PerkinElmer Wallac Wizard 1480, Waltham, MA, USA) to obtain decay-corrected values. The counts were set in relation to the initial counts at t0 (set as 100%) to prepare clearance curves by plotting the percentage of retained activity in the blood (% IA) against the time. The blood clearance curves were investigated until the counts of the blood samples were below the linear detection range (Supplementary Materials Section S6). An analysis was performed using GraphPad Prism software (version 8.0) by fitting a non-linear regression curve (exponential, two-phase) to the data points to calculate the serum half-lives. The areas under the curves (AUC0–7days) were calculated by integrating the blood excretion curves over 7 days and setting into relation with the AUC0–7days value obtained for [^177Lu]Lu-DOTA-ALB-1 (set as 1.0) to obtain relative AUC0–7days values. […]
S6. Blood Clearance of 177Lu-DOTA-ALBs
Purpose: The 177Lu-labeled DOTA-ALBs were investigated in vivo in order to assess their blood clearance profile.
Methods: Female, immunocompetent FVB mice were obtained from Charles River Laboratories (Sulzfeld, Germany), at the age of 5–6 weeks and acclimatized for at least 7 days before the start of the in vivo studies. Blood clearance of 177Lu-labeled DOTA-ALBs were determined in n=3–6 mice per radioligand. The radiolabeled DOTA-ALBs ( 25 MBq/nmol) were formulated in PBS pH 7.4 containing 0.05% bovine serum albumin (BSA) and L-ascorbic acid (25 µg per 25 MBq) to prevent radiolytic degradation. Mice were intravenously injected with the respective 177Lu-labeled DOTA-ALB (25 MBq, 1 nmol, 100 µL per mouse). The blood clearance was determined by taking blood samples (3 × 1 µL) from the tail vein using 1 µL-capillaries at 3 min after injection (set as t0) as well as at various timepoints over the following 48 h. In the case of [177Lu]Lu-DOTA-ALB-1 and [177Lu]Lu-DOTA-ALB-3, blood sampling was additionally performed at later time points up to 3 and 7 days, respectively. The collected blood samples were measured in a γ-coun-ter (PerkinElmer, Wallac Wizard 1480, Waltham, MA, USA).

[2] = n-octanol/PBS distribution coefficient (shake-flask) of 177Lu-DOTA-ALBs; type: physicochemical; conditions: n-octanol/PBS pH 7.4
Method: The radiolabeling of DOTA-ALBs was carried out under standard labeling conditions at pH 4.5. The ligands (10−100 μM) were mixed with lutetium-177 (no-carrier added [^177Lu]LuCl3; in 0.04 M HCl; ITM GmbH Medical Isotopes, Munich, Germany) to reach molar activities of 25–50 MBq/nmol (Supplementary Materials Section S2). An analytical HPLC system equipped with a C18 column and a radioactivity detector was used for quality control of the radiolabeled DOTA-ALBs (Supplementary Materials Section S2). The ^177Lu-DOTA-ALBs were used for preclinical investigations without separation of the labeled from the unlabeled fraction. The radiolytic stability of the ^177Lu-DOTA-ALBs (50 MBq/nmol) diluted in phosphate-buffered saline (PBS; 100 MBq/500 μL) was assessed in vitro in the absence and presence of L-ascorbic acid (Supplementary Materials Section S3). The n-octanol/PBS distribution coefficients (logD values) were determined using a shake-flask method according to an established protocol (Supplementary Materials Section S4). The logD values were analyzed using a one-way ANOVA with Tukey’s multiple comparisons post-test using GraphPad Prism software (version 8). […]
Purpose: The n-octanol/PBS distribution coefficients (logD values) were determined for all 177Lu-DOTA-ALBs in order to assess their hydrophilic/hydrophobic properties.
Methods: The n-octanol/PBS distribution coefficients (logD values) of the 177Lu-DOTA-ALBs were determined as previously described. […]
The vials were vortexed vigorously for 1 min followed by centrifugation for 6 min at 560 rcf for phase separation. An aliquot was taken from each phase and measured in a γ-counter (Perkin Elmer, Wallac Wizard 1480, Waltham, MA, USA). The distribution coeffi-cients were calculated as the logarithm of the ratio of counts per minute (cpm) measured in the n-octanol phase relative to the cpm measured in the PBS phase. […]
Methods: Relative binding affinities of 177Lu-DOTA-ALBs to mouse (MSA) and hu-man (HSA) serum albumin in the respective blood plasma were determined using an ul-trafiltration assay according to a previously described procedure. […]

[3] = FVB mice, i.v., 25 MBq, 1 nmol, two-phase exponential fit of blood activity

Row | SMILES | Rel. Blood AUC0–7days ([1]; mouse, in vivo) | % Phase a ([1]; mouse, in vivo, iv) | % Phase b ([1]; mouse, in vivo, iv) | Blood AUC0–7days ([1]; mouse, in vivo, iv) | Half-Life Phase a ([1]; mouse, in vivo, iv) | Half-Life Phase b ([1]; mouse, in vivo, iv) | logD value [2] | other results
1 | O=C(O)CN1CCN(CC(=O)O)CCN(CC(=O)NCCC(=O)N[C@@H](CCCCNC(=O)CCCc2ccc(I)cc2)C(=O)O)CCN(CC(=O)O)CC1.[177Lu] [[^177Lu]Lu-DOTA-ALB-1] | 1.0 | 33% | 67% | 1500 % IA× h | 0.006 h | 16 h | – | –
2 | O=C(O)CN1CCN(CC(=O)O)CCN(CC(=O)NCCC(=O)N[C@@H](CCCCNC(=O)c2ccc(CNC(=O)CCCc3ccc(I)cc3)cc2)C(=O)O)CCN(CC(=O)O)CC1.[177Lu] [[^177Lu]Lu-DOTA-ALB-3] | – | – | – | – | – | – | −2.64 ± 0.04 | Retention of activity in the blood ([1]; FVB mice, 0 h p.i. (t0 set as 100%)): 100 % IA; Retention of activity in the blood ([1]; FVB mice, 1 h p.i.): 81 ± 9 % IA; Retention of activity in the blood ([1]; FVB mice, 2 h p.i.): 74 ± 16 % IA; Retention of activity in the blood ([1]; FVB mice, 4 h p.i.): 71 ± 11 % IA; Retention of activity in the blood ([1]; FVB mice, 8 h p.i.): 66 ± 10 % IA; Retention of activity in the blood ([1]; FVB mice, 24 h p.i.): 45 ± 7 % IA; Retention of activity in the blood ([1]; FVB mice, 48 h p.i.): 28 ± 5 % IA; Retention of activity in the blood ([1]; FVB mice, 72 h p.i.): 19 ± 2 % IA; Retention of activity in the blood ([1]; FVB mice, 120 h p.i.): 7 ± 2 % IA; Retention of activity in the blood ([1]; FVB mice, 144 h p.i.): 5 ± 1 % IA; Retention of activity in the blood ([1]; FVB mice, 168 h p.i.): 3 ± 1 % IA; Half-Life Phase a [1, 3]: 0.5 h; Half-Life Phase b [1, 3]: 34 h; Time to Reach 50% IA (T50%IA) ([1]; FVB mice, i.v.): ~ 24 h; Time to Reach 50% IA (T50%IA) ([1]; FVB mice, i.v., listed as 3): ~24 h; Blood AUC0–7days ([1]; FVB mice, i.v., decay-corrected, over 7 days): 3617 % IA× h; % Phase a ([1]; FVB mice, i.v., share of Phase a in blood excretion curve): 23%; % Phase b ([1]; FVB mice, i.v., share of Phase b in blood excretion curve): 77%
3 | O=C(O)CN1CCN(CC(=O)O)CCN(CC(=O)NCCC(=O)N[C@@H](CCCCNC(=O)CCCCc2ccc(I)cc2)C(=O)O)CCN(CC(=O)O)CC1.[177Lu] [[^177Lu]Lu-DOTA-ALB-24] | 0.08 | 99% | 1% | 119 % IA× h | 0.8 h | 8.9 h | −2.68 ± 0.06 | –
4 | O=C(O)CN1CCN(CC(=O)O)CCN(CC(=O)NCCC(=O)N[C@@H](CCCCNC(=O)c2ccc(CNC(=O)CCCCc3ccc(I)cc3)cc2)C(=O)O)CCN(CC(=O)O)CC1.[177Lu] [[^177Lu]Lu-DOTA-ALB-25] | 0.3 | 41% | 59% | 425 % IA× h | 0.7 h | 4.5 h | −2.39 ± 0.04 | –
